Results as given in US20100286186A1, “NOVEL DICARBOXYLIC ACID LINKED AMINO ACID AND PEPTIDE PRODRUGS OF OPIOIDS AND USES THEREOF” (Shire LLC, priority 2009, published 2010).
Values joined by “and” are separate entries in the source; they are usually repeats but may differ in a detail not shown here. Equal values may be shown once. Marks after values point to notes of the source that are not given here.

Experiments:
[1] = Bioavailability of oxycodone, codeine and dihydrocodeine from their succinyl valine ester prodrugs in the dog (oral gavage, two-way crossover); conditions: dogs; for T>50%Cmax of oxycodone: 1 mg free base equivalents oxycodone/kg; for T>50%Cmax of dihydrocodeine: 1 mg free base equivalents dihydrocodeine/kg
Protocol: The characteristics of the test animals are set out in Table 10, below.
(§1) Blood samples were taken at various times after administration and submitted to analysis for the parent drug and pro-drug using a validated LC-MS-MS assay. Pharmacokinetic parameters derived from the plasma analytical data were determined using Win Nonlin.

[2] = test system: guinea pig small intestine myenteric plexus longitudinal muscle; experiment: Ex vivo smooth muscle contractility, electrical field stimulation response of isolated guinea pig small intestine; conditions: for EC50: Cavia porcellus, isolated guinea pig ileum, concentration as free base of opioid, read-out: EC50, opioid effect on electrical field stimulation response
gut motility in the rat = experiment: Charcoal propulsion test of GI motility in the rat; assay type: in vivo; conditions: oral; for delay of the passage of the charcoal meal (gut motility): 30 mg/kg or equimolar dose
Protocol: Test treatments were administered to groups of up to 10 rats fasted overnight prior to the test.
Test treatments were administered orally 60 minutes prior to a 2.0 mL oral dose of a 10% suspension of charcoal in 5% gum arabic. Thirty minutes after dosing with charcoal, the rats were sacrificed and the entire gastro-intestinal tract quickly and carefully removed. The distance the charcoal meal had traveled from the pyloric sphincter toward the caecum was measured and expressed as a percentage of both the total gut length and the length of the small intestine.

[3] = Comparative oral bioavailability of oxycodone from various dicarboxylate bridged amino acid prodrugs in dogs (nine-way crossover); assay type: in vivo, dog; conditions: 1 mg/kg oxycodone free base, mean (±sd)
[4] = Systemic availability of oxycodone after intranasal insufflation to dogs; conditions: nominal […] equivalents; for half-life: t½ of intact prodrug
[5] = Comparative pharmacokinetics of oxycodone in the cynomolgus monkey after oral administration
[6] = Comparative pharmacokinetics of oxycodone after oral administration to female Sprague Dawley rats; conditions: 10 mg oxycodone free base equivalents/kg; for T>50%Cmax of oxycodone: oral
[7] = In vitro stability of dicarboxylate amino acid ester prodrugs in simulated gastric and intestinal juice, distilled water and pH 10 buffer (HPLC)
[8] = Systemic availability of hydrocodone in dogs after oral administration of hydrocodone or hydrocodone succinyl valine enol ester; conditions: 1 mg hydrocodone free base equivalents/kg; for half-life: t½ of hydrocodone
Protocol: Test substances i.e. hydrocodone or hydrocodone succinyl valine enol ester were administered by oral gavage to a group of five male dogs in a two-way crossover design The characteristics of the test animals are set out in Table 26, below.
as §1

[9] = Plasma pharmacokinetics of meptazinol dicarboxylate linked prodrugs after oral gavage to dogs; assay type: in vivo, dog; conditions: dog, plasma, 1 mg meptazinol base equivalents/kg body weight, oral, read-out: expected Cmax of meptazinol after giving the drug itself
[10] = in vivo; cited from earlier work
[11] = cited from earlier work
[12] = rat model; cited from earlier work
[13] = oral gavage, individual dogs 1-5
[14] = male cynomolgus monkeys, oral prodrug, 1 mg oxycodone free base equivalents/kg, individual monkeys 1-5
[15] = male cynomolgus monkeys, oral, 1 mg oxycodone free base equivalents/kg, mean (n=5)
[16] = oral prodrug, individual rats, listed as Oxycodone succinyl valine enol ester
[17] = male dogs, oral, individual dogs 1M-5M

COc1ccc2c3c1O[C@H]1[C@@H](OC(=O)CCC(=O)NC(C(=O)O)C(C)C)C=CC4[C@@H](C2)N(C)CC[C@@]341 (stereo in doubt) [Codeine-[succinyl-(S)-valine] ester, codeine-[succinyl-(S)-valine]ester]
T>50%Cmax of codeine ([1]; oral gavage, 1 mg free base equivalents codeine/kg, median (n=5)): 2 h | EC50 [2]: 6.3 µM | reduction in potency compared to parent drug ([2]; guinea pig ileal smooth muscle): 50% | delay of the passage of the charcoal meal (gut motility) (gut motility in the rat): less than half the amount of codeine

COc1ccc2c3c1O[C@H]1C(OC(=O)CCC(=O)NC(C(=O)O)C(C)C)=CC[C@@]4(O)[C@@H](C2)N(C)CC[C@]314 (stereo in doubt) [oxycodone-[succinyl-(S)-valine] enol ester]
T>50%Cmax of oxycodone [1, 13]: 1.5 h (3×) and 2.5 h (2×) | T>50%Cmax of oxycodone ([1]; oral gavage, median (n=5)): 1.5^a h | period for which plasma concentrations were maintained above 50% of Cmax, compared to the drug itself ([1]; oral, oxycodone in plasma): three times longer | EC50 [2]: 2 µM | reduction in the opioid effects compared to oxycodone itself ([2]; guinea pig ileal smooth muscle): 10 fold | % change from vehicle-treated animals, small intestine (gut motility in the rat; 10 mg/kg): −12.1% | % change from vehicle-treated animals, total gut length (gut motility in the rat; 10 mg/kg): −11.2% | % change from vehicle-treated animals, small intestine (gut motility in the rat; 30 mg/kg): −15.8% | % change from vehicle-treated animals, total gut length (gut motility in the rat; 30 mg/kg): −15.6% | delay of the passage of the charcoal meal (gut motility) (gut motility in the rat): ~16% | % change from vehicle-treated animals, small intestine (gut motility in the rat; 100 mg/kg): −35.4% | % change from vehicle-treated animals, total gut length (gut motility in the rat; 100 mg/kg): −35.0% | T50% Cmax of oxycodone [3]: 1.6 (±0.3) h. | AUC ([4]; male, beagle, dog, plasma, other: intranasal insufflation, 0.25 mg oxycodone free base equivalents/kg, AUC of intact prodrug, mean): 10.3 ng·h/mL | AUC(0-t) ([4]; male, beagle, dog, plasma, other: intranasal insufflation, 0.25 mg oxycodone free base equivalents/kg, AUCt of intact prodrug, mean): 5.93 ng·h/mL | Cmax ([4]; male, beagle, dog, plasma, other: intranasal insufflation, 0.25 mg oxycodone free base equivalents/kg, Cmax of intact prodrug, mean): 4.87 ng/mL | Tmax ([4]; male, beagle, dog, plasma, other: intranasal insufflation, 0.25 mg oxycodone free base equivalents/kg, Tmax of intact prodrug, median): 15 min | half-life ([4]; male, beagle, dog, plasma, other: intranasal insufflation, 0.25 mg oxycodone free base equivalents/kg, calculated as ln2/mean k): 45 min | half-life ([4]; male, beagle, dog, plasma, other: intranasal insufflation, 0.25 mg oxycodone free base equivalents/kg, individual dogs): 51 min | Tmax of intact prodrug ([4]; individual dogs): 60 min | AUCt of intact prodrug [5, 14]: 0.76 ng·h/mL and 1.70 ng·h/mL and 0.39 ng·h/mL and 0.32 ng·h/mL and 0.71 ng·h/mL | Cmax of intact prodrug [5, 14]: 1.29 ng/mL and 2.92 ng/mL and 0.57 ng/mL and 0.42 ng/mL and 1.02 ng/mL | T>50%Cmax of oxycodone ([5]; male cynomolgus monkeys, oral, 1 mg oxycodone free base equivalents/kg, individual monkeys 1-5): 1.54 h and 1.63 h and 3.45 h and 4.43 h and 1.38 h | T>50%Cmax of oxycodone [5, 15]: 2.49 h | T>50%Cmax of oxycodone ([5]; male cynomolgus monkeys, oral, 1 mg oxycodone free base equivalents/kg, mean (n=5), listed as oxycodone succinyl valine ester): 2.5 h | AUC(0-t) ([5]; male, cynomolgus monkey, plasma, po, 1 mg oxycodone base equivalents/kg, AUCt of intact prodrug, male cynomolgus monkeys, oral prodrug, 1 mg oxycodone free base equivalents/kg, mean (n=5)): 0.78 ng·h/mL | Cmax ([5]; male, cynomolgus monkey, plasma, po, 1 mg oxycodone base equivalents/kg, Cmax of intact prodrug, male cynomolgus monkeys, oral prodrug, 1 mg oxycodone free base equivalents/kg, mean (n=5)): 1.24 ng/mL | prodrug Cmax as % of Cmax of the active drug ([5]; monkeys, oral prodrug): ~7% | AUC of oxycodone ([5]; monkeys, oral, 1 mg oxycodone base equivalents/kg): 42.3 ng/h/mL | AUC(0-t) ([6]; female, Sprague Dawley, rat, plasma, po, AUCt of intact prodrug, oral prodrug, mean (BLQ taken as zero)): 1.24 ng·h/mL | Cmax ([6]; female, Sprague Dawley, rat, plasma, po, Cmax of intact prodrug, oral prodrug, mean (BLQ taken as zero)): 2.35 ng/mL | Tmax ([6]; female, Sprague Dawley, rat, plasma, po, Tmax of intact prodrug, oral prodrug, median): 22.5 min | AUCt of intact prodrug [6, 16]: 3.53 ng · h/mL and 2.55 ng · h/mL and BLQ (2×) and 0.131 ng · h/mL | Cmax of intact prodrug [6, 16]: 6.77 ng/mL and 2.00 ng/mL and BLQ and 1.93 ng/mL and 1.05 ng/mL | Tmax of intact prodrug [6, 16]: 90 min | T>50%Cmax of oxycodone ([6]; individual rats, listed as Oxycodone succinyl valine enol ester): 11.8 h (2×) and 3.5 h and 3.75 h and 2 h | T>50%Cmax of oxycodone ([6]; median, listed as Oxycodone succinyl valine enol ester): 3.75^a h | T>50%Cmax of oxycodone ([6]; median, listed as oxycodone succinyl valine ester): 3.75 h | Simulated gastric fluid (pH 1.1): % remaining after 2 h/37° C. ([7]; pH 1.1, 2 h, 37° C.): 98% | Distilled water (pH 5.9): % remaining after 2 h/20° C. ([7]; pH 5.9, 2 h, 20° C.): 100% | Simulated intestinal fluid (pH 6.8): % remaining after 2 h/37° C. ([7]; pH 6.8, 2 h, 37° C.): 85% | pH 10.0 buffer: % remaining after 2 h/20° C. ([7]; pH 10.0, 2 h, 20° C.): 64%

COc1ccc2c3c1O[C@H]1[C@@H](O)CC[C@H]4[C@@H](C2)N(C)CC[C@@]341 [Dihydrocodeine, dihydrocodeine, reference compound]
T>50%Cmax of dihydrocodeine [1, 13]: 0.5 h | T>50%Cmax of dihydrocodeine ([1]; oral gavage, median (n=5)): 0.5^a h | T>50%Cmax of dihydrocodeine ([1]; oral gavage, median (n=5), listed as dihydrocodeine): 0.5 h | EC50 [2]: 5 µM | delay of the passage of the charcoal meal (gut motility) (gut motility in the rat): ~30%

COc1ccc2c3c1O[C@H]1C(=O)CC[C@H]4[C@@H](C2)N(C)CC[C@]314 [Hydrocodone, hydrocodone]
AUC of hydrocodone [8, 17]: 155 ng·h/mL and 111 ng·h/mL and 91.7 ng·h/mL and 71.0 ng·h/mL and 95.3 ng·h/mL | AUCt of hydrocodone [8, 17]: 154 ng·h/mL and 107 ng·h/mL and 89.2 ng·h/mL and 69.7 ng·h/mL and 94.1 ng·h/mL | Cmax of hydrocodone [8, 17]: 119 ng/mL and 76.8 ng/mL and 57.8 ng/mL and 53.3 ng/mL and 71.1 ng/mL | T>50%Cmax of hydrocodone [8, 17]: 0.75 h (3×) and 1.25 h (2×) | t½ of hydrocodone [8, 17]: 1.58 h and 1.66 h (2×) and 1.46 h | T>50%Cmax of hydrocodone ([8]; male dogs, oral, mean): 0.95 h | Tmax of hydrocodone ([8]; male dogs, oral, median): 0.5* h | Tmax ([8]; male, Beagle, dog, plasma, po): 30 min | AUC ([8]; male, Beagle, dog, plasma, po, AUC of hydrocodone, male dogs, mean): 105 ng·h/mL | AUC(0-t) ([8]; male, Beagle, dog, plasma, po, AUCt of hydrocodone, male dogs, mean): 103 ng·h/mL | Cmax ([8]; male, Beagle, dog, plasma, po, Cmax of hydrocodone, male dogs, mean (n=5)): 75.6 ng/mL | half-life ([8]; male, Beagle, dog, plasma, po, male dogs, individual dogs 1M-5M): 78.6 min | half-life ([8]; male, Beagle, dog, plasma, po, male dogs, mean): 92.4 min

CCC1(c2cccc(O)c2)CCCCN(C)C1 (stereo not drawn) [Meptazinol, meptazinol, reference compound]
Cmax [9]: 2 to 5 ng/mL | oral bioavailability [10]: < 10%

COc1ccc2c3c1O[C@H]1C(=O)CC[C@@]4(O)[C@@H](C2)N(C)CC[C@]314.Cl [Oxycodone HCl, oxycodone hydrochloride, reference compound]
T>50%Cmax of oxycodone [1, 13]: 0.5 h | T>50%Cmax of oxycodone ([1]; oral gavage, median (n=5)): 0.5^a h | T50% Cmax of oxycodone [3]: 2.0 (±0.6) h. | T>50%Cmax of oxycodone ([5]; male cynomolgus monkeys, oral, 1 mg oxycodone free base equivalents/kg, individual monkeys 1-5, hydrochloride): 1.84 h and 1.18 h and 1.89 h and 2.37 h and 1.79 h | T>50%Cmax of oxycodone [5, 15]: 1.81 h | T>50%Cmax of oxycodone ([6]; individual rats, hydrochloride): 1.75 h (2×) and 0.75 h (2×) and 0.5 h | T>50%Cmax of oxycodone ([6]; median): 0.75^a h

COc1ccc2c3c1O[C@H]1C(=O)CC[C@@]4(O)[C@@H](C2)N(C)CC[C@]314 [Oxycodone, oxycodone, reference compound]
% change from vehicle-treated animals, small intestine (gut motility in the rat; 10 mg/kg): −15.6% | % change from vehicle-treated animals, total gut length (gut motility in the rat; 10 mg/kg): −16.0% | % change from vehicle-treated animals, small intestine (gut motility in the rat; 30 mg/kg): −52.2% | % change from vehicle-treated animals, total gut length (gut motility in the rat; 30 mg/kg): −52.2% | delay of the passage of the charcoal meal (gut motility) (gut motility in the rat): 52% | % change from vehicle-treated animals, small intestine (gut motility in the rat; 100 mg/kg): −75.5% | % change from vehicle-treated animals, total gut length (gut motility in the rat; 100 mg/kg): −76.5% | T>50%Cmax of oxycodone [5, 15]: 1.8 h | T>50%Cmax of oxycodone ([6]; median): 0.75 h

COc1ccc2c3c1O[C@H]1[C@@H](OC(=O)CCC(=O)N[C@H](C(=O)O)C(C)C)CCC4[C@@H](C2)N(C)CC[C@@]341 (stereo partly drawn) [dihydrocodeine-[succinyl-(S)-valine]ester]
T>50%Cmax of dihydrocodeine ([1]; oral gavage, median (n=5)): 2 h | EC50 [2]: 20 µM | delay of the passage of the charcoal meal (gut motility) (gut motility in the rat): 8.5%

CCC(=O)Oc1ccc2c3c1O[C@H]1[C@@H](O)C=C[C@H]4[C@@H](C2)N(C)CC[C@@]341 [morphine-3-propionate]
half-life of hydrolysis in human plasma [11]: less than 5 minutes

(Z)-3-[2-(propionyloxy)phenyl]-2-propanoic ester
bioavailability over meptazinol itself [12]: significant increase in bioavailability
